Assay results published in patent US10035805B2, “Tricyclic triazolic compounds” (LABORATORIOS DEL DR. ESTEVE S.A., priority 2014, dated 2018).
pKi: −log10 of the molar value. Where a name gives a salt, the structure may show the parent alone.

These compounds were tested against T1, sigma-1 receptor (Cavia porcellus, UniProt Q60492) (assay: Sigma-1 receptor radioligand binding assay with [3H]-(+)-pentazocine in guinea pig brain membranes). Details: radioligand [3H]-(+)-pentazocine at 5.0 nM, 150 min at 37° C., nonspecific binding with 1 μM haloperidol.
T1 construct: Guinea pig brains were homogenized in 10 vols; (w/v) of Tris-HCl 50 mM 0.32 M sucrose; from tissue; host or cells: guinea pig brain membranes
T1 sequence (Q60492 whole entry): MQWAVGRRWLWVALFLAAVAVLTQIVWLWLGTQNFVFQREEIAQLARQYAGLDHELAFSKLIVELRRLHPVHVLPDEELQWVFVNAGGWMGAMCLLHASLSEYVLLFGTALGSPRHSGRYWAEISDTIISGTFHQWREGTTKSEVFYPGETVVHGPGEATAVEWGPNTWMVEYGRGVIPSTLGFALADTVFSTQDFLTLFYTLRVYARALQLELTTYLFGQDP
Procedure: Brain membrane preparation and binding assays for the al-receptor were performed as described (DeHaven-Hudkins, D. L., L. C. Fleissner, and F. Y. Ford-Rice, 1992, Characterization of the binding of [^3H](+)pentazocine to a recognition sites in guinea pig brain, Eur. J. Pharmacol. 227, 371-378) with some modifications. Guinea pig brains were homogenized in 10 vols. (w/v) of Tris-HCl 50 mM 0.32 M sucrose, pH 7.4, with a Kinematica Polytron PT 3000 at 15000 r.p.m. for 30 s. The homogenate was centrifuged at 1000 g for 10 min at 4° C. and the supernatants collected and centrifuged again at 48000 g for 15 min at 4° C. The pellet was resuspended in 10 volumes of Tris-HCl buffer (50 mM, pH 7.4), incubated at 37° C. for 30 min, and centrifuged at 48000 g for 20 min at 4° C. Following this, the pellet was resuspended in fresh Tris-HCl buffer (50 mM, pH 7.4) and stored on ice until use.
The radioligand used was [^3H]-(+)-pentazocine at 5.0 nM and the final volume was 200 μl. The incubation was initiated with the addition of 100 μl of membrane at a final tissue concentration of approximately 5 mg tissue net weight/mL and the incubation time was 150 m. at 37° C. After incubation, the membranes were collected onto pretreated glass fiber filterplate (MultiScreen-FC, Millipore), with polyethylenimine 0.1%. The filters were washed two times with 200 μl of washing buffer (50 mM Tris Cl, pH=7.4) and then 25 μl of Ecoscint H liquid scintillation cocktail were added. Microplates were allowed to set for several hours and then quantified by liquid scintillation spectrophotometry (1450 Microbeta, Wallac). Nonspecific binding was determined with 1 μM haloperidol.

| pKi | SMILES |
| --- | --- |
| 6.30 to 7.00 | FC(F)(F)c1ccc(CN2C[C@@H]3[C@@H](C2)NCc2c(-c4ccccc4)nnn23)cc1 [Example 26, (5aR,8aR)-3-phenyl-7-(4-(trifluoromethyl)benzyl)-5,5a,6,7,8,8a-hexahydro-4H-pyrrolo[3,4-e][1,2,3]triazolo[1,5-a]pyrazine hydrochloride] |
| 6.30 to 7.00 | c1ccc(-c2nnn3c2CN[C@@H]2CN(CC4CCOCC4)C[C@H]23)cc1 [Example 27, (5aR,8aR)-3-phenyl-7-((tetrahydro-2H-pyran-4-yl)methyl)-5,5a,6,7,8,8a-hexahydro-4H-pyrrolo[3,4-e][1,2,3]triazolo[1,5-a]pyrazine hydrochloride] |
| > 7.00 | Fc1ccccc1-c1nnn2c1CN[C@@H]1CN(Cc3ccccc3)C[C@H]12 [Example 29, (5aR,8aR)-7-benzyl-3-(2-fluorophenyl)-5,5a,6,7,8,8a-hexahydro-4H-pyrrolo[3,4-e][1,2,3]triazolo[1,5-a]pyrazine hydrochloride] |
| 6.30 to 7.00 | c1ccc(CN2C[C@H]3NCCc4c(-c5ccccc5)nnn4[C@H]3C2)cc1 [Example 34, (6aR,9aS)-8-benzyl-3-phenyl-4,5,6,6a,7,8,9,9a-octahydropyrrolo[3,4-b][1,2,3]triazolo[1,5-d][1,4]diazepine hydrochloride] |
| > 7.00 | c1ccc(CN2C[C@@H]3NCCc4c(-c5ccccc5)nnn4[C@@H]3C2)cc1 [Example 35, (6aS,9aR)-8-benzyl-3-phenyl-4,5,6,6a,7,8,9,9a-octahydropyrrolo[3,4-b][1,2,3]triazolo [1,5-d][1,4]-diazepine hydrochloride] |

The remaining lines, values behind:

| SMILES | pKi |
| --- | --- |
| c1ccc(CN2C[C@@H]3NCc4c(-c5ccccc5)nnn4[C@H]3C2)cc1 [Example 21, (5aS,8aS)-7-benzyl-3-phenyl-5,5a,6,7,8,8a-hexahydro-4H-pyrrolo[3,4-e][1,2,3]triazolo[1,5-a]pyrazine hydrochloride] | < 6.30 |
| c1ccc(CN2C[C@@H]3[C@@H](C2)NCc2c(-c4ccccc4)nnn23)cc1 [Example 22, (5aR,8aR)-7-benzyl-3-phenyl-5,5a,6,7,8,8a-hexahydro-4H-pyrrolo[3,4-e][1,2,3]triazolo[1,5-a]pyrazine hydrochloride] | > 7.00 |
| Fc1ccc(CN2C[C@@H]3NCc4c(-c5ccccc5)nnn4[C@H]3C2)cc1 [Example 23, (5aS,8aS)-7-(4-fluorobenzyl)-3-phenyl-5,5a,6,7,8,8a-hexahydro-4H-pyrrolo[3,4-e][1,2,3]triazolo[1,5-a]pyrazine hydrochloride] | < 6.30 |
| Fc1ccc(CN2C[C@@H]3[C@@H](C2)NCc2c(-c4ccccc4)nnn23)cc1 [Example 24, (5aR,8aR)-7-(4-fluorobenzyl)-3-phenyl-5,5a,6,7,8,8a-hexahydro-4H-pyrrolo[3,4-e][1,2,3]triazolo[1,5-a]pyrazine hydrochloride] | > 7.00 |
| Clc1ccc(CN2C[C@@H]3[C@@H](C2)NCc2c(-c4ccccc4)nnn23)cc1 [Example 25, (5aR,8aR)-7-(4-chlorobenzyl)-3-phenyl-5,5a,6,7,8,8a-hexahydro-4H-pyrrolo[3,4-e][1,2,3]triazolo[1,5-a]pyrazine hydrochloride] | > 7.00 |
